Measurements reported in publication PMC12685177, “Structures of G-protein coupled receptor HCAR3 in complex with selective agonists reveal the basis for ligand recognition and selectivity” (PLOS Biology, 2025).
Values joined by “and” are separate entries in the source; they are usually repeats but may differ in a detail not shown here. Equal values may be shown once. Read-outs that look alike come from different tables or passages of the source.

Columns and labels:
HCAR3 = settings: cited from earlier work; for higher affinity to HCAR3 than to HCAR2: HCAR3 vs HCAR2; for affinity difference to HCAR3 compared to HCAR2: previously reported
HCAR2 N86L = assay: cAMP assay, homology-mutated HCAR2 at residue 86 (N86L); type: cell-based, human
Procedure: The cAMP levels were quantified using the cAMP-Gi kit from Perkin Elmer (model TRF0263), adhering to the manufacturer’s guidelines. […] After 36 hours, the cells, once rinsed with PBS, were treated with a stimulation buffer,including 500 μM IBMX, and incubated for 30 min in a 384-well plate maintained at 37 °C, with a seeding density of 4,000 cells per well. This step was followed by the addition of 12 μM forskolin to each well, with the incubation continuing for an additional 45 min at the same temperature. Subsequently, each well received 5 μL of the cAMP Eu-cryptate solution and the anti-cAMP-d2 solution, and the mixture was incubated for 1 hour at room temperature [45]. […] The acquired data were analyzed using GraphPad Prism version 9.0, with statistical significance set at p < 0.05. All experimental procedures were replicated three times to ensure accuracy.

wild-type HCAR3 = target: T1, wild-type HCAR3 (Homo sapiens, UniProt P49019); assay: Surface plasmon resonance measurement (Biacore X100), wild-type HCAR3; type: binding; settings: 6O, PLA, IBC293, acifran compared
T1 construct: expression of the entire length of human HCAR3 and HCAR2 proteins; FLAG (N); 3C protease cleavage site (N); His (C); made in house

wild-type HCAR2 [1] = target: T2, wild-type HCAR2 (Homo sapiens, UniProt Q8TDS4); type: binding; parameters: SPR sensorgram response, Acifran-HCAR2: unit not given here
T2 construct: expression of the entire length of human HCAR3 and HCAR2 proteins; FLAG (N); 3C protease cleavage site (N); His (C); made in house

wild-type HCAR2 [2] = type: binding, human; parameters: SPR sensorgram response, Acifran-HCAR2: unit not given here
HCAR3 R111A = target: T3, HCAR3 R111A (Homo sapiens, UniProt P49019, R111A); assay: cAMP assay, HCAR3 R111A mutant; type: cell-based; settings: HCAR3 R111A vs WT
T3 construct: Full-length variants of HCAR3 and HCAR2, including specific point mutations, were incorporated into pcDNA3.1 vectors; FLAG; expressed in transfected cells
T3 sequence (P49019 whole entry R111A): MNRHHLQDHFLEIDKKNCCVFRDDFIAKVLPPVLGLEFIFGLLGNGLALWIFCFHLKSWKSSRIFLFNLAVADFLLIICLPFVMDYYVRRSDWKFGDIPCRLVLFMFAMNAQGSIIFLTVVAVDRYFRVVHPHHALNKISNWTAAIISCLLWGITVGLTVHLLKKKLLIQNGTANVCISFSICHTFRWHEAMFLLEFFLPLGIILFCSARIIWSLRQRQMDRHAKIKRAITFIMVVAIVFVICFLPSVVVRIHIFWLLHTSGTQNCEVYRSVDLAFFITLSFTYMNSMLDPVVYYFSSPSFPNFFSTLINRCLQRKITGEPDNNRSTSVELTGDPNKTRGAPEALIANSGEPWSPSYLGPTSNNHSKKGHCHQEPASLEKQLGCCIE
Procedure: Full-length variants of HCAR3 and HCAR2, including specific point mutations, were incorporated into pcDNA3.1 vectors for conducting cAMP assays. The cAMP levels were quantified using the cAMP-Gi kit from Perkin Elmer (model TRF0263), adhering to the manufacturer’s guidelines. […] Cells were transiently transfected with either wild-type or mutant HCAR3 plasmids (at a dosage of 500 ng per well in a 24-well format) using Lipofectamine 3000 (Invitrogen). After 36 hours, the cells, once rinsed with PBS, were treated with a stimulation buffer,including 500 μM IBMX, and incubated for 30 min in a 384-well plate maintained at 37 °C, with a seeding density of 4,000 cells per well. This step was followed by the addition of 12 μM forskolin to each well, with the incubation continuing for an additional 45 min at the same temperature. Subsequently, each well received 5 μL of the cAMP Eu-cryptate solution and the anti-cAMP-d2 solution, and the mixture was incubated for 1 hour at room temperature [45]. Fluorescence readings at 620/665 nm were then gathered using a multimode plate reader (Perkin Elmer EnVision 2105) [46]. The acquired data were analyzed using GraphPad Prism version 9.0, with statistical significance set at p < 0.05. All experimental procedures were replicated three times to ensure accuracy.

T2 sequence (Q8TDS4 whole entry): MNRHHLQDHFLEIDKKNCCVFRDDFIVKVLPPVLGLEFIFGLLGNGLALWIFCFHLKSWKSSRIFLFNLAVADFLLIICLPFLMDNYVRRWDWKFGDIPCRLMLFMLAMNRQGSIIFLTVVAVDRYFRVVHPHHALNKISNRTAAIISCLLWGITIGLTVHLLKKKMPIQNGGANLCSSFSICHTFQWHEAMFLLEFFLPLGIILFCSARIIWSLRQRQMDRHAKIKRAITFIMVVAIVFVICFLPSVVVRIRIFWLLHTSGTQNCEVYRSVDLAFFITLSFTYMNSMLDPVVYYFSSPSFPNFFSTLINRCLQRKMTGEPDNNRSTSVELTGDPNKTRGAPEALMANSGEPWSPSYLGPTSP
T1 sequence (P49019 whole entry): as the sequence (P49019 whole entry R111A) above, with A111R counted along it

O=C(O)c1cc(N(Cc2ccsc2)Cc2ccsc2)n[nH]1 [6O, 3-[bis(thiophen-3-ylmethyl)amino]-1H-pyrazole-5-carboxylic acid]
higher affinity to HCAR3 than to HCAR2 (HCAR3): at least 100 fold | affinity difference to HCAR3 compared to HCAR2 (HCAR3): 100- to 1,000 fold | cAMP response (normalized) (HCAR2 N86L; 6O-HCAR2 N86L, log[M] -3, Fig. S14B): 75.8023 and 73.3702 and 70.1872 | cAMP response (normalized) (HCAR2 N86L; 6O-HCAR2 N86L, log[M] -4, Fig. S14B): 70.0938 and 69.3817 and 72.4279 | cAMP response (normalized) (HCAR2 N86L; 6O-HCAR2 N86L, log[M] -5, Fig. S14B): 77.2869 and 68.2771 and 76.7503 | cAMP response (normalized) (HCAR2 N86L; 6O-HCAR2 N86L, log[M] -6, Fig. S14B): 87.0105 and 88.7719 and 89.0756 | cAMP response (normalized) (HCAR2 N86L; 6O-HCAR2 N86L, log[M] -7, Fig. S14B): 92.1091 and 85.2704 and 84.4838 | cAMP response (normalized) (HCAR2 N86L; 6O-HCAR2 N86L, log[M] -8, Fig. S14B): 95.6219 and 96.9675 and 90.6554 | cAMP response (normalized) (HCAR2 N86L; 6O-HCAR2 N86L, log[M] -9, Fig. S14B): 95.5893 and 94.7012 and 97.44 | cAMP response (normalized) (HCAR2 N86L; 6O-HCAR2 N86L, log[M] -10, Fig. S14B): 99.7701 and 103.601 and 102.183 | efficacy among the four ligands by surface plasmon resonance (wild-type HCAR3): highest efficacy among these four ligands

CC1(c2ccccc2)OC(C(=O)O)=CC1=O (stereo not drawn) [Acifran, acifran]
SPR sensorgram response, Acifran-HCAR2 (wild-type HCAR2 [1]; acifran concentration 0.025 (unit not given), c2 value 159.6 (head printed log[M])): -15.5002 | SPR sensorgram response, Acifran-HCAR2 (wild-type HCAR2 [1]; acifran concentration 0.025 (unit not given), c2 value 160.6 (head printed log[M])): -15.3633 | SPR sensorgram response, Acifran-HCAR2 (wild-type HCAR2 [1]; acifran concentration 0.05 (unit not given), c2 value 159.6 (head printed log[M])): -16.3767 | SPR sensorgram response, Acifran-HCAR2 (wild-type HCAR2 [1]; acifran concentration 0.1 (unit not given), c2 value 159.6 (head printed log[M])): -16.3472 | SPR sensorgram response, Acifran-HCAR2 (wild-type HCAR2 [1]; acifran concentration 0.4 (unit not given), c2 value 159.6 (head printed log[M])): -15.8456 | affinity difference acifran-HCAR2 vs acifran-HCAR3 (wild-type HCAR2 [2]): ~ 100 fold | cAMP response (normalized) (HCAR2 N86L; Acifran-HCAR2 N86L, log[M] -3, Fig. S12E): 51.1208 and 61.7941 and 63.8756 | cAMP response (normalized) (HCAR2 N86L; Acifran-HCAR2 N86L, log[M] -4, Fig. S12E): 60.2042 and 54.7738 and 52.0221 | cAMP response (normalized) (HCAR2 N86L; Acifran-HCAR2 N86L, log[M] -5, Fig. S12E): 64.2273 and 75.5651 and 74.1332 | cAMP response (normalized) (HCAR2 N86L; Acifran-HCAR2 N86L, log[M] -6, Fig. S12E): 84.0136 and 74.6749 | cAMP response (normalized) (HCAR2 N86L; Acifran-HCAR2 N86L, log[M] -7, Fig. S12E): 89.2308 and 93.0182 | cAMP response (normalized) (HCAR2 N86L; Acifran-HCAR2 N86L, log[M] -8, Fig. S12E): 92.6771 and 91.0418 | cAMP response (normalized) (HCAR2 N86L; Acifran-HCAR2 N86L, log[M] -9, Fig. S12E): 100.347 and 91.8401 and 97.0308 | cAMP response (normalized) (HCAR2 N86L; Acifran-HCAR2 N86L, log[M] -10, Fig. S12E): 103.679

CC(C)n1nnc2cc(C(=O)O)ccc21 [IBC293, 1-propan-2-ylbenzotriazole-5-carboxylic acid]
effect of R111A mutation on agonist action at HCAR3 (cAMP assay) (HCAR3 R111A): barely interfered HCAR3 activation | higher affinity to HCAR3 than to HCAR2 (HCAR3): at least 100 fold | affinity difference to HCAR3 compared to HCAR2 (HCAR3): 100- to 1,000 fold | cAMP response (normalized) (HCAR2 N86L; IBC293-HCAR2 N86L, log[M] -3, Fig. S14C): 79.8778 and 75.4919 and 74.9151 | cAMP response (normalized) (HCAR2 N86L; IBC293-HCAR2 N86L, log[M] -4, Fig. S14C): 76.5789 and 72.1623 and 89.1848 | cAMP response (normalized) (HCAR2 N86L; IBC293-HCAR2 N86L, log[M] -5, Fig. S14C): 83.4897 and 75.4819 and 86.0148 | cAMP response (normalized) (HCAR2 N86L; IBC293-HCAR2 N86L, log[M] -6, Fig. S14C): 92.474 and 94.1647 and 90.5718 | cAMP response (normalized) (HCAR2 N86L; IBC293-HCAR2 N86L, log[M] -7, Fig. S14C): 100.025 and 101.905 and 97.6855 | cAMP response (normalized) (HCAR2 N86L; IBC293-HCAR2 N86L, log[M] -8, Fig. S14C): 96.4886 and 103.749 and 98.8962 | cAMP response (normalized) (HCAR2 N86L; IBC293-HCAR2 N86L, log[M] -9, Fig. S14C): 106.585 and 93.0489 and 96.2716 | cAMP response (normalized) (HCAR2 N86L; IBC293-HCAR2 N86L, log[M] -10, Fig. S14C): 101.501 and 101.566 and 98.9795

O=C(O)C(O)Cc1ccccc1 [PLA, D-phenyllactic acid]
affinity difference to HCAR3 compared to HCAR2 (HCAR3): 100- to 1,000 fold | cAMP response (normalized) (HCAR2 N86L; PLA-HCAR2 N86L, log[M] -3, Fig. S14D): 52.7872 and 58.3693 and 59.0285 | cAMP response (normalized) (HCAR2 N86L; PLA-HCAR2 N86L, log[M] -4, Fig. S14D): 77.5234 and 72.7009 and 60.409 | cAMP response (normalized) (HCAR2 N86L; PLA-HCAR2 N86L, log[M] -5, Fig. S14D): 76.3988 and 76.6951 and 70.3605 | cAMP response (normalized) (HCAR2 N86L; PLA-HCAR2 N86L, log[M] -6, Fig. S14D): 100.996 and 89.6375 and 92.8244 | cAMP response (normalized) (HCAR2 N86L; PLA-HCAR2 N86L, log[M] -7, Fig. S14D): 92.0146 and 97.7923 and 90.5493 | cAMP response (normalized) (HCAR2 N86L; PLA-HCAR2 N86L, log[M] -8, Fig. S14D): 94.5951 and 98.3127 and 96.313 | cAMP response (normalized) (HCAR2 N86L; PLA-HCAR2 N86L, log[M] -9, Fig. S14D): 99.4667 and 89.0551 and 95.4388 | cAMP response (normalized) (HCAR2 N86L; PLA-HCAR2 N86L, log[M] -10, Fig. S14D): 94.992 and 94.7429 and 103.357
